Data: patent US20250059179A1, “Heterocyclic Compounds and Methods of Use” (AMGEN INC., priority 2021, published 2025)
Like-named read-outs stand apart in the source and are kept apart here.

Legend:
[1] = target: His-tagged KRAS G12D protein (Homo sapiens, UniProt P01116, G12D); assay: KRAS G12D TR-FRET Assay; type: binding; details: biotinylated KRPep-2d substrate, 10 μM GDP;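 further: europium anti-His antibody paired with streptavidin-d2 as FRET partners, initial 30 min incubation, then peptide 1 h and detection reagents 1 h, all at room temperature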
Chain of His-tagged KRAS G12D protein (P01116 1-188 isoform P01116-2 G12D): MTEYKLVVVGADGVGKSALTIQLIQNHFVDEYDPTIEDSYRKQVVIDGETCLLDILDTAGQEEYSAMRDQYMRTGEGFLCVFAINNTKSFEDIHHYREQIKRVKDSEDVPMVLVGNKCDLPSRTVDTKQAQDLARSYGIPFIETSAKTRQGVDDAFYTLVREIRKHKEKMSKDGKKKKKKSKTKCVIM

[2] = target: GDP-bound KRAS protein (aa 1-169), containing both G12D and C118A amino acid substitutions (Homo sapiens, UniProt P01116, C118A/G12D); assay: KRAS G12D Coupled Nucleotide Exchange Assay; type: biochemical; details: 2 h compound pre-incubation; SOS-mediated nucleotide exchange, cRAF AlphaScreen readout;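 further: IC50 obtained by fitting the AlphaScreen signal with a four-parameter logistic curve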
Chain of GDP-bound KRAS protein (aa 1-169), containing both G12D and C118A amino acid substitutions (P01116 1-169 isoform P01116-2 G12D/C118A): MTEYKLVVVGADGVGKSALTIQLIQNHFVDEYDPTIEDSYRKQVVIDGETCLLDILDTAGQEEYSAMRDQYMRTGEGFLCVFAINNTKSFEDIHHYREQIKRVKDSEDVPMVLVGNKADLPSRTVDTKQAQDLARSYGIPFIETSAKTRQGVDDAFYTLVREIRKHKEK

[3] = test system: Phosphorylation of ERK1/2 in A-427 cells; assay: Phospho-ERK1/2 MSD Assay; type: cell-based; details: 2 h compound treatment, read-out: pERK (A427 cells) IC50
Experimental: A-427 (ATCC® HTB-53™) cells were cultured in RPMI 1640 Medium (ThermoFisher Scientific 11875093) containing 10% fetal bovine serum (ThermoFisher Scientific 16000044) and 1× penicillin-streptomycin-glutamine (ThermoFisher Scientific 10378016). Sixteen hours prior to compound treatment, A-427 cells were seeded in 96-well cell culture plates at a density of 25,000 cells/well and incubated at 37° C., 5% CO2. A compound dose-response titration was diluted in growth media, added to appropriate wells of a cell culture plate, and then incubated at 37° C., 5% CO2 for 2 h. Following compound treatment, cells were washed with ice-cold Dulbecco's phosphate-buffered saline, no Ca^2+ or Mg^2+ (ThermoFisher Scientific 14190144), and then lysed in RIPA buffer (50 mM Tris-HCl pH 7.5, 1% Igepal, 0.5% sodium deoxycholate, 150 mM NaCl, and 0.5% sodium dodecyl sulfate) containing protease inhibitors (Roche 4693132001) and phosphatase inhibitors (Roche 4906837001). Phosphorylation of ERK1/2 in compound-treated lysates was assayed using Phospho-ERK1/2 Whole Cell Lysate kits (Meso Scale Discovery K151DWD) according to the manufacturer's protocol. Assay plates were read on a Meso Scale Discovery Sector Imager 6000, and data were analyzed using a 4-parameter logistic model to calculate IC50 values.

Row | IC50 [1] | Avg 2 h Coupled Exchange IC50 [2] | IC50 ([3]; Homo sapiens, A-427, 2 h) | Compound | IC50 [3]
1 | 228 nM | 0.122 µM | > 10 µM | C[C@]1(COc2nc(N3CCNCC3)c3cc(Cl)c(-c4cccc5sc(N)nc45)c(F)c3n2)CCCN1 [Example 74, 4-(6-chloro-8-fluoro-2-(((R)-2-methyl-pyrrolidin-2-yl)methoxy)-4-(piperazin-1-yl)quinazolin-7-yl)benzo[d] thiazol-2-amine] | 
2 | 112 nM | 0.063 µM | > 10 µM | Nc1nc2c(-c3c(Cl)cc4c(N5CCNCC5)nc(OC[C@@H]5CCCN5)nc4c3F)cccc2s1 [Example 72, 4-(6-chloro-8-fluoro-4-(piperazin-1-yl)-2-(((S)-pyrrolidin-2-yl)methoxy)quinazolin-7-yl)benzo[d] thiazol-2-amine] | 
3 | 476 nM | 0.361 µM | > 25 µM | CN1CCC[C@H]1CCOc1nc(N2CCNCC2)c2cc(Cl)c(-c3cccc4sc(N)nc34)c(F)c2n1 [Example 61, 4-(6-chloro-8-fluoro-2-(2-((S)-1-methyl-pyrrolidin-2-yl)ethoxy)-4-(piperazin-1-yl)quinazolin-7-yl)benzo[d] thiazol-2-amine] | 
4 | 100 nM | 0.023 µM | 4.22 µM | C[C@H]1CNCCN1c1nc(OC[C@@H]2CCCN2C)nc2c(F)c(-c3cccc4sc(N)nc34)c(Cl)cc12 [Example 16, 4-(6-chloro-8-fluoro-4-((S)-2-methylpiperazin-1-yl)-2-(((S)-1-methylpyrrolidin-2-yl)methoxy)quinazolin-7-yl)benzo[d]thiazol-2-amine] | 
5 | 414 nM | 0.087 µM | 3.29 µM | CN1CCC[C@H]1COc1nc2c(F)c(-c3cccc4sc(N)nc34)c(Cl)cc2c(N2CCNCC2)c1C#N [Example 158, 7-(2-aminobenzo[d]thiazol-4-yl)-6-chloro-8-fluoro-2-(((S)-1-methylpyrrolidin-2-yl)methoxy)-4-(piperazin-1-yl)quinoline-3-carbonitrile] | 
6 | 480 nM | 0.343 µM | > 25 µM | CN1CCCCC1CCOc1nc(N2CCNCC2)c2cc(Cl)c(-c3cccc4sc(N)nc34)c(F)c2n1 (stereo not drawn) [Example 60, 4-(6-chloro-8-fluoro-2-(2-(1-methylpiperidin-2-yl)ethoxy)-4-(piperazin-1-yl)quinazolin-7-yl)benzo[d] thiazol-2-amine] | 
7 | 53 nM | 0.042 µM | 16.7 µM | Nc1nc2c(-c3c(Cl)cc4c(N5CCNCC5)nc(OC[C@@]56CCCN5[C@@H](CO)CC6)nc4c3F)cccc2s1 [Example 51, ((3R,7aS)-7a-(((7-(2-aminobenzo[d]thiazol-4-yl)-6-chloro-8-fluoro-4-(piperazin-1-yl)quinazolin-2-yl)oxy)methyl)hexahydro-1H-pyrrolizin-3-yl)methanol] | 
8 | 56 nM | 0.074 µM | 3.41 µM | CN1CCC[C@H]1COc1nc(C2=CCNC2)c2cc(Cl)c(-c3cccc4sc(N)nc34)c(F)c2n1 [Example 148, 4-(6-chloro-4-(2,5-dihydro-1H-pyrrol-3-yl)-8-fluoro-2-(((S)-1-methylpyrrolidin-2-yl)methoxy)quinazolin-7-yl)benzo[d]thiazol-2-amine] | 
9 | 51 nM | 0.048 µM | 5.61 µM | Nc1nc2c(-c3c(Cl)cc4c(N5CCNC6CCCC65)nc(OC[C@@]56CCCN5C[C@H](F)C6)nc4c3F)ccc(F)c2s1 (stereo partly drawn) [Example 40, 4-(6-chloro-8-fluoro-2-(((2R,7aS)-2-fluorotetrahydro-1H-pyrrolizin-7a(5H)-yl)methoxy)-4-(octahydro-1H-cyclopenta[b]pyrazin-1-yl)quinazolin-7-yl)-7-fluorobenzo[d] thiazol-2-amine] | 
10 | 336 nM | 0.065 µM | > 10 µM | CN1CCC[C@H]1COc1nc(N2CCCNCCC2)c2cc(Cl)c(-c3cccc4sc(N)nc34)c(F)c2n1 [Example 35, 4-(6-chloro-4-(1,5-diazocan-1-yl)-8-fluoro-2-(((S)-1-methylpyrrolidin-2-yl)methoxy)quinazolin-7-yl)benzo[d]thiazol-2-amine] | 
11 | 265 nM | 0.141 µM | > 25 µM | Nc1nc2c(-c3c(Cl)cc4c(N5CCNCC5)nc(OCC56CCCCN5CCC6)nc4c3F)cccc2s1 (stereo not drawn) [Example 57, 4-(6-chloro-8-fluoro-2-((hexahydro-indolizin-8a(1H)-yl)methoxy)-4-(piperazin-1-yl)quinazolin-7-yl)benzo[d] thiazol-2-amine] | 

Row | Compound | IC50 [1] | Avg 2 h Coupled Exchange IC50 [2] | IC50 ([3]; Homo sapiens, A-427, 2 h) | IC50 [3]
12 | Nc1nc2c(-c3c(Cl)cc4c(N5C6CCNCC5CC6)nc(OC[C@@]56CCCN5C[C@H](F)C6)nc4c3F)ccc(F)c2s1 (single isomer, unassigned) [Example 33] | 63 nM | 0.01 µM |  | 0.879 µM
13 | C=Cc1cc2c(N3C[C@H]4CC[C@@H](C3)N4)nc(OC[C@@]34CCCN3C[C@H](F)C4)nc2c(F)c1-c1ccc(F)c2sc(N)nc12 [Example 150, 4-(4-((1R,5S)-3,8-diazabicyclo[3.2.1]octan-3-yl)-8-fluoro-2-(((2R,7aS)-2-fluorotetrahydro-1H-pyrrolizin-7a(5H)-yl)methoxy)-6-vinylquinazolin-7-yl)-7-fluorobenzo[d]thiazol-2-amine] | 3 nM | 0.006 µM | 0.011 µM | 
14 | Nc1nc2c(-c3c(Cl)cc4c(N5C[C@H]6CC[C@@H](C5)N6)nc(OC[C@]56CCCN5C[C@H](F)C6)nc4c3F)ccc(F)c2s1 [Example 136, 4-(4-((1R,5S)-3,8-diazabicyclo[3.2.1]octan-3-yl)-6-chloro-8-fluoro-2-(((2R,7aR)-2-fluorotetrahydro-1H-pyrrolizin-7a(5H)-yl)methoxy)quinazolin-7-yl)-7-fluorobenzo[d]thiazol-2-amine] | 1 nM | 0.001 µM | 0.033 µM | 
15 | CCc1cc2c(N3[C@@H]4CC[C@H]3CNC4)nc(OC[C@@]34CCCN3C[C@H](F)C4)nc2c(F)c1-c1ccc(F)c2sc(N)nc12 [Example 154, 4-(4-((1R,5S)-3,8-diazabicyclo[3.2.1]octan-8-yl)-6-ethyl-8-fluoro-2-(((2R,7aS)-2-fluorotetrahydro-1H-pyrrolizin-7a(5H)-yl)methoxy)quinazolin-7-yl)-7-fluorobenzo[d]thiazol-2-amine] | 4 nM | 0.004 µM | 0.055 µM | 
16 | CN1C[C@H](F)C[C@H]1COc1nc(N2[C@@H]3CC[C@H]2CNC3)c2cc(Cl)c(-c3ccc(F)c4sc(N)nc34)c(F)c2n1 [Example 3, 4-(4-((1R,5S)-3,8-diazabicyclo[3.2.1]octan-8-yl)-6-chloro-8-fluoro-2-(((2S,4R)-4-fluoro-1-methylpyrrolidin-2-yl)methoxy)quinazolin-7-yl)-7-fluorobenzo[d] thiazol-2-amine] | 6 nM | 0.005 µM | 0.194 µM | 
17 | CN1CCC[C@H]1CCOc1nc(N2C[C@H]3C[C@@H](C2)N3)c2cc(Cl)c(-c3ccc(F)c4sc(N)nc34)c(F)c2n1 [Example 11, 4-(4-((1R,5S)-3,6-diazabicyclo[3.1.1]heptan-3-yl)-6-chloro-8-fluoro-2-(2-((S)-1-methylpyrrolidin-2-yl)ethoxy)quinazolin-7-yl)-7-fluorobenzo[d] thiazol-2-amine] | 29 nM | 0.011 µM | 8.25 µM | 
18 | Nc1nc2c(-c3c(Cl)cc4c(N5[C@@H]6CNC[C@H]5COC6)nc(OC[C@@]56CCCN5C[C@H](F)C6)nc4c3F)ccc(F)c2s1 [Example 122, 4-(4-((1R,5S)-3-Oxa-7,9-diazabicyclo[3.3.1]nonan-9-yl)-6-chloro-8-fluoro-2-(((2R,7aS)-2-fluorotetrahydro-1H-pyrrolizin-7a(5H)-yl)methoxy)quinazolin-7-yl)-7-fluorobenzo[d]thiazol-2-amine] | 4 nM | 0.003 µM | 0.167 µM | 
19 | Nc1nc2c(-c3c(Cl)cc4c(N5C[C@H]6C[C@@H](C5)N6)nc(OCC56CCCN5CC(F)(F)C6)nc4c3F)ccc(F)c2s1 (stereo partly drawn) [Example 14, 4-(4-((1R,5S)-3,6-diazabicyclo[3.1.1]heptan-3-yl)-6-chloro-2-((2,2-difluorotetrahydro-1H-pyrrolizin-7a(5H)-yl)methoxy)-8-fluoroquinazolin-7-yl)-7-fluorobenzo[d] thiazol-2-amine] | 12 nM | 0.014 µM | 1.5 µM | 
20 | Nc1nc2c(-c3c(Cl)cc4c(N5[C@@H]6CNC[C@H]5COC6)nc(OC[C@]56CCCN5C[C@H](F)C6)nc4c3F)ccc(F)c2s1 [Example 124, 4-(4-((1R,5S)-3-oxa-7,9-diazabicyclo[3.3.1]nonan-9-yl)-6-chloro-8-fluoro-2-(((2R,7aR)-2-fluorotetrahydro-1H-pyrrolizin-7a(5H)-yl)methoxy)quinazolin-7-yl)-7-fluorobenzo[d]thiazol-2-amine] | 7 nM | 0.006 µM | 0.287 µM | 
